For the series, the system named is rodent lifetime carcinogenesis bioassay, tumor incidence TD50. The experiment in a line: carcinogenic potency in animals, long-term in vivo studies, CPDB compilation (AID 1745844).

Molecules are shown by their SMILES. Activity calls are given as the source filed them. No rule for the calls is given here.

The term TD50 denotes the 50% point of the dose-response relation for the toxic effect studied.

Consider `Clc1cc(Cl)cc(-c2cc(Cl)cc(Cl)c2)c1`, for which the carcinogen call (rat, strain Donryu, females, in feed, site: liver, lesion: one or several types, types not named, dosed 26 weeks, study length 84 weeks) is “negative (inactive)”.
`N#CN=C(N)N`: the carcinogen call is “negative (inactive)” (rat, strain F344/DuCrj, females, in feed, site: any site (literature study), lesion: several types, types named in the paper, dosed 104 weeks, study length 113 weeks); “negative (inactive)” (rat, strain F344/DuCrj, females, in feed, site: liver, lesion: one or several types, types not named, dosed 104 weeks, study length 113 weeks); “negative (inactive)” (rat, strain F344/DuCrj, males, in feed, site: any site (literature study), lesion: several types, types named in the paper, dosed 104 weeks, study length 113 weeks). Also, the TD50 is 109000 mg/kg/day (inactive) (rat, strain F344/DuCrj, males, in feed, site: liver, lesion: hepatocellular adenoma, dosed 104 weeks, study length 113 weeks) and 15600 mg/kg/day (inactive) (rat, strain F344/DuCrj, males, in feed, site: subcutaneous tissue, lesion: lipoma, dosed 104 weeks, study length 113 weeks).
In the case of `NC1CCCCC1`, the carcinogen call is, setting by setting: (mouse, strain ASH-CS1, females, in feed, site: any site (literature study), lesion: several types, types named in the paper, dosed 80 weeks, study length 84 weeks) “negative (inactive)”; (mouse, strain ASH-CS1, females, in feed, site: liver, lesion: nodular hyperplasia, dosed 80 weeks, study length 84 weeks) “negative (inactive)”; (mouse, strain ASH-CS1, females, in feed, site: lung, lesion: adenoma, dosed 80 weeks, study length 84 weeks) “negative (inactive)”; (mouse, strain ASH-CS1, males, in feed, site: any site (literature study), lesion: several types, types named in the paper, dosed 80 weeks, study length 84 weeks) “negative (inactive)”; (mouse, strain ASH-CS1, males, in feed, site: lung, lesion: adenocarcinoma, dosed 80 weeks, study length 84 weeks) “negative (inactive)”; (mouse, strain ASH-CS1, males, in feed, site: lung, lesion: adenoma, dosed 80 weeks, study length 84 weeks) “negative (inactive)”. In addition, the carcinogen call is “negative (inactive)” (mouse, strain Swiss, females, in feed, site: urinary bladder, lesion: anaplastic carcinoma, dosed 91 weeks, study length 91 weeks); “negative (inactive)” (mouse, strain Swiss, males, in feed, site: urinary bladder, lesion: one or several types, types not named, dosed 91 weeks, study length 91 weeks); “negative (inactive)” (rat, strain FDRL, both sexes, in feed, site: any site (literature study), lesion: several types, types named in the paper, dosed 104 weeks, study length 104 weeks); “negative (inactive)” (rat, strain Sprague-Dawley, both sexes, in feed, site: any site (literature study), lesion: malignant tumor, dosed 130 weeks, study length 130 weeks); “negative (inactive)” (rat, strain Sprague-Dawley, both sexes, in feed, site: urinary bladder, lesion: one or several types, types not named, dosed 130 weeks, study length 130 weeks); “negative (inactive)” (rat, strain Wistar, males, in feed, site: liver, lesion: hemangioma, dosed 104 weeks, study length 104 weeks). Further, the TD50 is, setting by setting: (mouse, strain ASH-CS1, males, in feed, site: liver, lesion: nodular hyperplasia, dosed 80 weeks, study length 84 weeks) 231 mg/kg/day (inactive); (rat, strain Charles River albino, males, in feed, site: urinary bladder, lesion: transitional-cell carcinoma, dosed 104 weeks, study length 104 weeks) 280 mg/kg/day; (rat, strain Sprague-Dawley, both sexes, in feed, site: liver, lesion: liver-cell adenoma, dosed 130 weeks, study length 130 weeks) 14500 mg/kg/day (inactive); (rat, strain Wistar, females, in feed, site: liver, lesion: hemangioma, dosed 104 weeks, study length 104 weeks) 1330 mg/kg/day (inactive); (rat, strain Wistar, males, in feed, site: liver, lesion: nodular hyperplasia, dosed 104 weeks, study length 104 weeks) 47000 mg/kg/day (inactive).
As for `N#[N+]c1ccccc1`, the TD50 by setting is: (hamster, strain Syrian Golden, females, by gavage, site: liver, lesion: Kupffer-cell sarcoma, dosed 90 weeks, study length 90 weeks) 66.1 mg/kg/day (inactive); (hamster, strain Syrian Golden, females, by gavage, site: liver, lesion: cholangioma, dosed 90 weeks, study length 90 weeks) 293 mg/kg/day (inactive); (hamster, strain Syrian Golden, females, by gavage, site: liver, lesion: hemangioma, dosed 90 weeks, study length 90 weeks) 66.1 mg/kg/day (inactive); (hamster, strain Syrian Golden, males, by gavage, site: liver, lesion: hemangioma, dosed 90 weeks, study length 90 weeks) 293 mg/kg/day (inactive); (mouse, strain Swiss albino, females, by gavage, site: lung, lesion: adenocarcinoma, dosed 52 weeks, study length 141 weeks) 39.4 mg/kg/day; (mouse, strain Swiss albino, females, by gavage, site: lung, lesion: adenoma, dosed 52 weeks, study length 141 weeks) 27.1 mg/kg/day. The TD50 (mouse, strain Swiss albino, females, by gavage, site: lung, lesion: several types, types named in the paper, dosed 52 weeks, study length 141 weeks) was 16.5 mg/kg/day; the TD50 (mouse, strain Swiss albino, males, by gavage, site: lung, lesion: adenoma, dosed 52 weeks, study length 129 weeks) amounted to 14.8 mg/kg/day; the TD50 (mouse, strain Swiss albino, males, by gavage, site: lung, lesion: several types, types named in the paper, dosed 52 weeks, study length 129 weeks) is 12.7 mg/kg/day.
On to `COc1ccc(N)c(C)c1`, for which the TD50 (mouse, strain B6C3F1, females, by gavage, site: any site (literature study), lesion: several types, types named in the paper, dosed 53 weeks, study length 93 weeks) was determined as 69.2 mg/kg/day; the TD50 (mouse, strain B6C3F1, females, by gavage, site: liver, lesion: hepatocellular adenoma + hepatocellular carcinoma + neoplastic nodule, dosed 53 weeks, study length 93 weeks) turned out to be 206 mg/kg/day; the TD50 (mouse, strain B6C3F1, females, by gavage, site: liver, lesion: hepatocellular adenoma + hepatocellular carcinoma, dosed 53 weeks, study length 93 weeks) is 206 mg/kg/day (inactive); the TD50 (mouse, strain B6C3F1, females, by gavage, site: lung, lesion: alveolar/bronchiolar adenoma + alveolar/bronchiolar carcinoma, dosed 53 weeks, study length 93 weeks) is 250 mg/kg/day; the TD50 (mouse, strain B6C3F1, males, by gavage, site: any site (literature study), lesion: several types, types named in the paper, dosed 53 weeks, study length 93 weeks) turned out to be 72.2 mg/kg/day; the TD50 (rat, strain Fischer 344, females, by gavage, site: any site (literature study), lesion: several types, types named in the paper, dosed 77 weeks, study length 109 weeks) is 51.5 mg/kg/day. Further, the TD50 is, setting by setting: (rat, strain Fischer 344, females, by gavage, site: liver, lesion: hepatocellular adenoma + hepatocellular carcinoma + neoplastic nodule, dosed 77 weeks, study length 109 weeks) 1100 mg/kg/day; (rat, strain Fischer 344, females, by gavage, site: mammary gland, lesion: fibroadenoma, dosed 77 weeks, study length 109 weeks) 52.7 mg/kg/day; (rat, strain Fischer 344, females, by gavage, site: urinary bladder, lesion: transitional-cell carcinoma, dosed 77 weeks, study length 109 weeks) 769 mg/kg/day; (rat, strain Fischer 344, males, by gavage, site: any site (literature study), lesion: several types, types named in the paper, dosed 77 weeks, study length 109 weeks) 368 mg/kg/day; (rat, strain Fischer 344, males, by gavage, site: liver, lesion: hepatocellular adenoma + hepatocellular carcinoma + neoplastic nodule, dosed 77 weeks, study length 109 weeks) 506 mg/kg/day; (rat, strain Fischer 344, males, by gavage, site: urinary bladder, lesion: transitional-cell carcinoma, dosed 77 weeks, study length 109 weeks) 470 mg/kg/day.
As to `CCN(C)N=O`, the TD50 reads like this: (rat, strain Fischer 344, females, in drinking water, site: all sites, lesion: one or several types, types not named, dosed 30 weeks, study length 115 weeks) 0.0386 mg/kg/day; (rat, strain Fischer 344, males, by gavage, site: liver, lesion: hemangiosarcoma, dosed 30 weeks, study length 55 weeks) 0.12 mg/kg/day; (rat, strain Fischer 344, males, by gavage, site: liver, lesion: hepatocellular tumor, benign, dosed 30 weeks, study length 55 weeks) 0.0503 mg/kg/day; (rat, strain Fischer 344, males, by gavage, site: liver, lesion: several types, types named in the paper, dosed 30 weeks, study length 55 weeks) 0.0503 mg/kg/day; (rat, strain Fischer 344, males, by gavage, site: lung, lesion: alveolar/bronchiolar adenoma, dosed 30 weeks, study length 55 weeks) 0.242 mg/kg/day; (rat, strain Fischer 344, males, by gavage, site: nasal mucosa, lesion: one or several types, types not named, dosed 30 weeks, study length 55 weeks) 0.201 mg/kg/day.
`Cc1ccc([N+](=O)[O-])cc1N`: the TD50 by setting is: (mouse, strain B6C3F1, females, in feed, site: all sites + liver, lesion: hemangiosarcoma + hepatocellular carcinoma, dosed 78 weeks, study length 96 weeks) 242 mg/kg/day; (mouse, strain B6C3F1, females, in feed, site: all sites, lesion: hemangiosarcoma, dosed 78 weeks, study length 96 weeks) 1860 mg/kg/day; (mouse, strain B6C3F1, females, in feed, site: any site (literature study), lesion: several types, types named in the paper, dosed 78 weeks, study length 96 weeks) 989 mg/kg/day; (mouse, strain B6C3F1, females, in feed, site: liver, lesion: hepatocellular adenoma + hepatocellular carcinoma + neoplastic nodule, dosed 78 weeks, study length 96 weeks) 288 mg/kg/day; (mouse, strain B6C3F1, females, in feed, site: liver, lesion: hepatocellular carcinoma, dosed 78 weeks, study length 96 weeks) 288 mg/kg/day; (mouse, strain B6C3F1, males, in feed, site: all sites + liver, lesion: hemangioma + hemangiosarcoma + hepatocellular carcinoma, dosed 78 weeks, study length 95 weeks) 269 mg/kg/day. Besides, the TD50 is 2550 mg/kg/day (mouse, strain B6C3F1, males, in feed, site: all sites, lesion: hemangioma + hemangiosarcoma, dosed 78 weeks, study length 95 weeks); 431 mg/kg/day (mouse, strain B6C3F1, males, in feed, site: any site (literature study), lesion: several types, types named in the paper, dosed 78 weeks, study length 95 weeks); 266 mg/kg/day (mouse, strain B6C3F1, males, in feed, site: liver, lesion: hepatocellular adenoma + hepatocellular carcinoma + neoplastic nodule, dosed 78 weeks, study length 95 weeks); 266 mg/kg/day (mouse, strain B6C3F1, males, in feed, site: liver, lesion: hepatocellular carcinoma, dosed 78 weeks, study length 95 weeks); 43 mg/kg/day (rat, strain Fischer 344, females, in feed, site: liver, lesion: hepatocellular adenoma + hepatocellular carcinoma + neoplastic nodule, dosed 78 weeks, study length 108 weeks); 43.7 mg/kg/day (rat, strain Fischer 344, males, in feed, site: any site (literature study), lesion: several types, types named in the paper, dosed 78 weeks, study length 107 weeks). Also, the TD50 (rat, strain Fischer 344, males, in feed, site: liver, lesion: hepatocellular carcinoma, dosed 78 weeks, study length 107 weeks) is 27.7 mg/kg/day (inactive). For the same compound, the carcinogen call (rat, strain Fischer 344, females, in feed, site: any site (literature study), lesion: several types, types named in the paper, dosed 78 weeks, study length 108 weeks) was “negative (inactive)”.
In the case of `CCCc1cc(=O)[nH]c(=S)[nH]1`, the TD50 (mouse, strain C57BL, both sexes, in feed, site: pituitary gland, lesion: adenoma, dosed 73 weeks, study length 73 weeks) was 409 mg/kg/day; the TD50 (rat, strain Long-Evans, males, in feed, site: thyroid gland, lesion: adenoma, dosed 52 weeks, study length 52 weeks) was 10.3 mg/kg/day; the TD50 (rat, strain Wistar albino, females, in drinking water, site: thyroid gland, lesion: adenoma, dosed 78 weeks, study length 78 weeks) is 15.8 mg/kg/day; the TD50 (rat, strain Wistar albino, females, in drinking water, site: thyroid gland, lesion: carcinoma, dosed 78 weeks, study length 78 weeks) was 115 mg/kg/day; the TD50 (rat, strain Wistar albino, males, in drinking water, site: thyroid gland, lesion: adenoma, dosed 78 weeks, study length 78 weeks) is 17.2 mg/kg/day; the TD50 (rat, strain Wistar albino, males, in drinking water, site: thyroid gland, lesion: carcinoma, dosed 78 weeks, study length 78 weeks) is 79.3 mg/kg/day. Moreover, the carcinogen call (rat, strain Wistar, males, in drinking water, site: thyroid gland, lesion: adenoma, dosed 26 weeks, study length 104 weeks) was “negative (inactive)”.

(Values after PubChem BioAssay AID1745844 (Carcinogenic Potency Database (CPDB), 2022).)
